Values of other authors as cited in patent US20130165526A1, “TOPICAL TREATMENT WITH DAPSONE IN G6PD-DEFICIENT PATIENTS” (ALLERGAN, INC., priority 2007, published 2013).

Tested on: P. acnes
Settings: Godowski et al., 2000

Nc1ccc(S(=O)(=O)c2ccc(N)cc2)cc1 [Dapsone, bis(4-aminophenyl)sulfone]
Minimum inhibitory concentration: about 1 microgram per milliliter
